pIC50: −log10 of the molar value. Calls of active or inactive are those of the source. The rule behind the calls is not given here.
Experiments:
[1] = tested on: LoVo; experiment: Cell cycle arrest in human LoVo cells assessed as decrease of cells in G2/M phase at 20 to 80 nM measured after 24 hrs by PI staining based flow cytometry method; type: functional; settings: dose 20-80 nM
[2] = Cytotoxicity against human GES1 cells assessed as reduction in cell viability measured after 24 hrs by MTT assay; type: cell-based
[3] = tested on: SW-620; experiment: Cell cycle arrest in human SW-620 cells assessed as accumulation of cells in G0/G1 phase at 20 to 80 nM measured after 24 hrs by PI staining based flow cytometry method; type: functional; settings: dose 20-80 nM
[4] = molecular target: Heat shock protein HSP 90-alpha (Homo sapiens, UniProt P07900); experiment: Inhibition of recombinant human N terminal his-tagged HSP90 alpha (1 to 732 residues) expressed in Escherichia coli measured after 60 mins by Flourescence polarization assay
[5] = tested on: A549; experiment: Antiproliferative activity against human A549 cells assessed as inhibition of cell proliferation measured after 24 hrs by MTT assay; type: functional, cell-based; settings: A549, 24 h
[6] = tested on: OVCAR-3; experiment: Antiproliferative activity against human OVCAR-3 cells assessed as inhibition of cell proliferation measured after 24 hrs by MTT assay; type: functional, cell-based; settings: OVCAR-3, 24 h
[7] = tested on: LoVo; experiment: Antiproliferative activity against human LoVo cells assessed as inhibition of cell proliferation measured after 24 hrs by MTT assay; type: functional, cell-based
[8] = tested on: SGC-7901; experiment: Antiproliferative activity against human SGC-7901 cells assessed as inhibition of cell proliferation measured after 24 hrs by MTT assay; type: functional, cell-based; settings: SGC-7901, 24 h
[9] = Cytotoxicity against human MRC5 cells assessed as reduction in cell viability measured after 24 hrs by MTT assay; type: cell-based
[10] = tested on: LoVo; experiment: Induction of apoptosis in human LoVo cells assessed as viable cells at 20 nM measured after 24 hrs by Annexin V/PI staining based flow cytometry method (reference value: 93.5%); type: functional; settings: read-out: Activity
[11] = tested on: LoVo; experiment: Induction of apoptosis in human LoVo cells assessed as early apoptotic cells at 20 nM measured after 24 hrs by Annexin V/PI staining based flow cytometry method (reference value: 1.6%); type: functional
[12] = tested on: LoVo; experiment: Induction of apoptosis in human LoVo cells assessed as late apoptotic cells at 20 nM measured after 24 hrs by Annexin V/PI staining based flow cytometry method (reference value: 1.6%); type: functional
[13] = tested on: LoVo; experiment: Induction of apoptosis in human LoVo cells assessed as late apoptotic cells at 40 nM measured after 24 hrs by Annexin V/PI staining based flow cytometry method (reference value: 1.6%); type: functional
[14] = tested on: LoVo; experiment: Induction of apoptosis in human LoVo cells assessed as necrotic cells at 40 nM measured after 24 hrs by Annexin V/PI staining based flow cytometry method (reference value: 1.3%); type: functional
[15] = tested on: LoVo; experiment: Induction of apoptosis in human LoVo cells assessed as viable cells at 80 nM measured after 24 hrs by Annexin V/PI staining based flow cytometry method (reference value: 93.5%); type: functional; settings: read-out: Activity
[16] = tested on: LoVo; experiment: Induction of apoptosis in human LoVo cells assessed as early apoptotic cells at 80 nM measured after 24 hrs by Annexin V/PI staining based flow cytometry method (reference value: 1.6%); type: functional
[17] = tested on: LoVo; experiment: Induction of apoptosis in human LoVo cells assessed as late apoptotic cells at 80 nM measured after 24 hrs by Annexin V/PI staining based flow cytometry method (reference value: 1.6%); type: functional
[18] = tested on: LoVo; experiment: Induction of apoptosis in human LoVo cells assessed as necrotic cells at 80 nM measured after 24 hrs by Annexin V/PI staining based flow cytometry method (reference value: 1.3%); type: functional
[19] = tested on: SW-620; experiment: Induction of apoptosis in human SW-620 cells assessed as viable cells at 20 nM measured after 24 hrs by Annexin V/PI staining based flow cytometry method (reference value: 94%); type: functional; settings: read-out: Activity
[20] = tested on: SW-620; experiment: Induction of apoptosis in human SW-620 cells assessed as late apoptotic cells at 20 nM measured after 24 hrs by Annexin V/PI staining based flow cytometry method (reference value: 1.3%); type: functional
[21] = tested on: SW-620; experiment: Induction of apoptosis in human SW-620 cells assessed as necrotic cells at 20 nM measured after 24 hrs by Annexin V/PI staining based flow cytometry method (reference value: 3%); type: functional
[22] = tested on: SW-620; experiment: Induction of apoptosis in human SW-620 cells assessed as viable cells at 40 nM measured after 24 hrs by Annexin V/PI staining based flow cytometry method (reference value: 94%); type: functional; settings: read-out: Activity
[23] = tested on: SW-620; experiment: Induction of apoptosis in human SW-620 cells assessed as early apoptotic cells at 40 nM measured after 24 hrs by Annexin V/PI staining based flow cytometry method (reference value: 1.7%); type: functional
[24] = tested on: SW-620; experiment: Induction of apoptosis in human SW-620 cells assessed as late apoptotic cells at 40 nM measured after 24 hrs by Annexin V/PI staining based flow cytometry method (reference value: 1.3%); type: functional
[25] = tested on: SW-620; experiment: Induction of apoptosis in human SW-620 cells assessed as necrotic cells at 40 nM measured after 24 hrs by Annexin V/PI staining based flow cytometry method (reference value: 3%); type: functional
[26] = tested on: SW-620; experiment: Induction of apoptosis in human SW-620 cells assessed as early apoptotic cells at 80 nM measured after 24 hrs by Annexin V/PI staining based flow cytometry method (reference value: 1.7%); type: functional
[27] = tested on: SW-620; experiment: Induction of apoptosis in human SW-620 cells assessed as late apoptotic cells at 80 nM measured after 24 hrs by Annexin V/PI staining based flow cytometry method (reference value: 1.3%); type: functional
[28] = tested on: SW-620; experiment: Induction of apoptosis in human SW-620 cells assessed as necrotic cells at 80 nM measured after 24 hrs by Annexin V/PI staining based flow cytometry method (reference value: 3%); type: functional
[29] = tested on: SW-620; experiment: Induction of apoptosis in human SW-620 cells assessed as increase in cleaved caspase-3 levels at 20 to 80 nM measured after 24 hrs by Western blot assay; type: functional, cell-based; settings: dose 20-80 nM
[30] = tested on: SW-620; experiment: Antitumour activity against human SW-620 cells xenografted in Balb/c mouse assessed as inhibition of tumour growth at 5 mg/kg, ip measured after 21 days; type: functional; settings: SW-620, ip, 504 h, time 21 day, read-out: TGI
[31] = tested on: SW-620; experiment: Antitumour activity against human SW-620 cells xenografted in Balb/c mouse assessed as increase in cleaved-caspase 3 expression in tumour at 5 mg/kg, ip measured after 21 days immunochemical staining method; type: functional, organism-based; settings: time 21.0 day
[32] = tested on: SW-620; experiment: Antitumour activity against human SW-620 cells xenografted in Balb/c mouse assessed as decrease in Ki67 expression in tumour at 5 mg/kg, ip measured after 21 days immunochemical staining method; type: functional, organism-based; settings: time 21.0 day
[33] = tested on: LoVo; experiment: Induction of apoptosis in human LoVo cells assessed as increase in Bax levels at 20 to 80 nM measured after 24 hrs by Western blot assay; type: functional, cell-based; settings: dose 20-80 nM
[34] = tested on: LoVo; experiment: Induction of apoptosis in human LoVo cells assessed as decrease in Bcl-2 levels at 20 to 80 nM measured after 24 hrs by Western blot assay; type: functional, cell-based; settings: dose 20-80 nM
[35] = tested on: LoVo; experiment: Induction of apoptosis in human LoVo cells assessed as increase in cleaved caspase-3 levels at 20 to 80 nM measured after 24 hrs by Western blot assay; type: functional, cell-based; settings: dose 20-80 nM
[36] = tested on: SW-620; experiment: Induction of apoptosis in human SW-620 cells assessed as decrease in Bcl-2 levels at 20 to 80 nM measured after 24 hrs by Western blot assay; type: functional, cell-based; settings: dose 20-80 nM

Q: For `CC1(C)[C@H]2CC[C@]1(C)N(Cc1cn(-c3cccc(Br)c3)nn1)C(=O)C2`, which Activity [1] is on record?
A: Its Activity is “Active”.

Q: And the CC50 at 24 h [2]?
A: The CC50 at 24 h was 9930 nM.

Q: What about the Activity [3] of the same compound?
A: Its Activity is “Active”.

Q: What about the pIC50 [4] of the same compound?
A: Its pIC50 is 9.15.

Q: What about the pIC50 [5] of the same compound?
A: The pIC50 was 7.05.

Q: And the pIC50 [6]?
A: Its pIC50 is 7.52.

Q: What about the pIC50 [7] of the same compound?
A: The pIC50 was 7.52.

Q: What about the pIC50 [8] of the same compound?
A: The pIC50 was 6.92.

Q: And the CC50 at 24 h [9]?
A: The CC50 at 24 h was 38800 nM.

Q: What about the viability at 0.02 µM [10] of the same compound?
A: The viability at 0.02 µM was 91.9%.

Q: What about the Activity [11] of the same compound?
A: The Activity was 3%.

Q: And the Activity [12]?
A: The Activity was 3.1%.

Q: What about the Activity [13] of the same compound?
A: Its Activity is 5.4%.

Q: What about the Activity [14] of the same compound?
A: The Activity was 1.6%.

Q: And the viability at 0.08 µM [15]?
A: The viability at 0.08 µM was 61.7%.

Q: And the Activity [16]?
A: The Activity was 7.4%.

Q: And the Activity [17]?
A: Its Activity is 24.9%.

Q: What about the Activity [18] of the same compound?
A: Its Activity is 6%.

Q: What about the viability at 0.02 µM [19] of the same compound?
A: The viability at 0.02 µM was 83.9%.

Q: What about the Activity [20] of the same compound?
A: Its Activity is 8.5%.

Q: What about the Activity [21] of the same compound?
A: Its Activity is 2.5%.

Q: What about the viability at 0.04 µM [22] of the same compound?
A: Its viability at 0.04 µM is 75.5%.

Q: And the Activity [23]?
A: The Activity was 8.1%.

Q: What about the Activity [24] of the same compound?
A: The Activity was 15.1%.

Q: What about the Activity [25] of the same compound?
A: Its Activity is 1.3%.

Q: And the Activity [26]?
A: Its Activity is 20.6%.

Q: And the Activity [27]?
A: The Activity was 29.3%.

Q: And the Activity [28]?
A: Its Activity is 3.7%.

Q: And the Activity [29]?
A: Its Activity is “Active”.

Q: And the inhibition in vivo at 5 mg/kg [30]?
A: Its inhibition in vivo at 5 mg/kg is 81.6%.

Q: What about the Activity [31] of the same compound?
A: Its Activity is “Active”.

Q: What about the Activity [32] of the same compound?
A: Its Activity is “Active”.

Q: And the Activity [33]?
A: Its Activity is “Active”.

Q: And the Activity [34]?
A: The Activity was “Active”.

Q: And the Activity [35]?
A: Its Activity is “Active”.

Q: What about the Activity [36] of the same compound?
A: The Activity was “Active”.

— ChEMBL document CHEMBL4813917, “2-((1-Phenyl-1H-1,2,3-triazol-4-yl)methyl)-2-azabicyclo[3.2.1]octan-3-one derivatives: Simplification and modification of aconitine scaffold for the discovery of novel anticancer agents” (Eur J Med Chem, 2021)
